Laboratory results taken from EP0366226A1, “Stabilized thiocarbonate solutions and the use thereof for controlling soil pests” (UNION OIL COMPANY OF CALIFORNIA, priority 1988, dated 1990).
Marks after values point to notes of the source that are not given here.

What was measured:
[1] = test system: root-knot nematode larvae; test: Greenhouse nematocide experiment with tomato plants, root gall count; format: in vivo; conditions: Application 50 ppm; mean of four replicates; asterisk = statistically indistinguishable
Source text: (§1) Eighty containers were used, each containing about 500 grams of sterilized sandy loam soil. Each container was given four 5-milliliter injections of extract from nematode-infested pepper roots, one inch below the soil surface, producing an initial population of 2000 root-knot nematode larvae per container.
(§2) Twenty treatments were replicated four times, each treatment consisting of solution injection into the soil at a two inch depth. The treatments included each of the six compositions from Example 3 at three levels, plus one level of the known nematocide 1,2-dibromo-3-chloropropane (DBCP), and a control with only water injected. After injection, each container was enclosed in a plastic bag and placed in the shade for three days. Upon removing the bags, the soils were aerated by stirring and were allowed to stand undisturbed for eight additional days. Following an additional aeration, a tomato seedling was planted in eac pot.
(§3) Each container received 25 milligrams nitrogen (as calcium nitrate) immediately after planting, followed by 2 grams of a slow release complete fertilizer. […] By use of a magnifying glass, the number of root galls was counted on each plant. […]
(§4) The results are shown in the following table, in which the "Application" represents milligrams of treatment per kilogram of soil, calculated as contained carbon disulfide for the Example 3 solutions. […]

[2] = test system: tomato plants; test: Greenhouse nematocide experiment, plant dry weight / phytotoxicity; format: in vivo; conditions: Application 50 ppm; 37 days of growth
Source text: as §1, §2, §3, §4

[3] = Rate of carbon disulfide loss from solutions on nitrogen bubbling (mass spectrometer); format: physicochemical; conditions: undiluted (pure CS2; Ex. 1 100%)
Protocol: The rate at which carbon disulfide is lost from diluted ammonium thiocarbonate compositions was determined by bubbling nitrogen through the solutions and measuring the carbon disulfide content of the gas which leaves the solution using a mass spectrometer.
In the determination, the solution, corresponding to that of Example 1 (containing 14.1 percent by weight carbon disulfide), was compared to pure carbon disulfide, and to serial dilutions of the Example 1 solution with water, which were 10, 1 and 0.1 volume percent solutions of the original composition. The results are tabulated below, wherein k is the calculated first order rate constant for loss of carbon disulfide, and t is the solution half-life.

[4] = Effect of pH on production of CS2 from thiocarbonates in citrate-phosphate buffers (gas chromatography of air); format: physicochemical
Protocol: Pure carbon disulfide was also injected, for comparison. A syringe was used to periodically sample air in the bottle, and the air was analyzed by gas chromotography.

[5] = Degradation time in sandy loam soil at different moisture (CS2 in air space by gas chromatography); format: physicochemical
Protocol: A sandy loam soil was placed in 1-liter glass bottles, fitted with stoppers having fluorocarbon liners and silicone rubber septa, to give a soil depth of about 4 cm. Water was added to the soil, in quantities to obtain 50 and 100 percent soil saturation. Thiocarbonate solution or carbon disulfide was then injected near the bottom of the soil layer, the bottles were promptly sealed, and the air space in the bottles was sampled at intervals with a syringe, for gas chromatographic analysis of CS₂. The results are summarized below, wherein degradation time is the number of hours required to achieve the maximum CS₂ concentration in the air space.

SMILES	Gall Count [1]	Dry Weight, Grams Roots [2] [Grams]	Dry Weight, Grams Total [2] [Grams]	k, first order rate constant for loss of carbon disulfide [3] [h⁻¹]	Half-life (minutes) for production of carbon disulfide ([4]; pH 5.2, 125 milligrams of thiocarbonate ion per liter) [min]	Half-life (minutes) for production of carbon disulfide ([4]; pH 6.0) [min]	Half-life (minutes) for production of carbon disulfide ([4]; pH 7.0) [min]	Half-life (minutes) for production of carbon disulfide ([4]; pH 8.0, CaCS4 values above pH 7 called unreliable) [min]	Degradation Time ([5]; Soil Moisture 50 % of Saturation) [h]	Degradation Time ([5]; Soil Moisture 100 % of Saturation) [h]
ClCC(Br)CBr (stereo not shown) [DBCP, 1,2-dibromo-3-chloropropane]	0*	0.273	1.238	–	–	–	–	–	–	–
S=C=S [CS₂, carbon disulfide, reference compound]	–	–	–	2.0	1	1	1	1	3.5	3.5
